These are literature values, as cited in US11096912B2, “Valaciclovir and celecoxib combination for functional somatic syndromes” (INNOVATIVE MED CONCEPTS, LLC, priority 2012, dated 2021).

The structures appear in SMILES notation.

This data set deals with fibromyalgia patients. Particulars: valacyclovir alone; J. Rheumatology (2004) 31, 783-784.

As to `CC(C)[C@H](N)C(=O)OCCOCn1cnc2c(=O)[nH]c(N)nc21` [valacyclovir], the “treatment of fibromyalgia patients” value is “not successful”.
